According to patent US12421243B2, “Pharmaceutically effective compounds inhibiting selectively the myosin 2 isoforms” (PRINTNET KERESKEDELMI ÉS SZOLGÁLTATÓ KFT., priority 2018, dated 2025):

How the values were obtained:
[1] = target: recombinant Dictyostelium miozin (Dictyostelium) (Dictyostelium discoideum, UniProt P08799); test: actomyosin steady state ATPase measurement, Dictyostelium myosin; type: biochemical; details: for IC50: concentration required for semi-maximal inhibition of ATPase, read-out: IC50 (μM) Dicty; for inhibition at 5 µM: read-out: % inhibition at 5 μM (or 10 μM if racemate) Dicty; for inhibition at 50 µM: read-out: % inhibition at 50 μM (or 100 μM if racemate) Dicty; for % inhibition. complete Dicty: maximum value of inhibition of ATPase activity
Excerpt: (§1) […]; (ii) the concentration required for semi-maximal inhibition.

[2] = target: T1, isolated porcine cardiac ventricular myocardium (cardiac) (Sus scrofa, UniProt P79293); test: actomyosin steady state ATPase measurement, cardiac myosin; type: biochemical; details: for IC50: concentration required for semi-maximal inhibition of ATPase; for % inhibition. complete cardiac: maximum value of inhibition of ATPase activity; for inhibition at 5 µM: read-out: % inhibition at 5 μM (or 10 μM if racemate) cardiac, 5 μM (10 μM if racemate); for inhibition at 5 µM / inhibition at 50 µM: ATPase activity; for inhibition at 50 µM: read-out: % inhibition at 50 μM (or 100 μM if racemate) cardiac, 50 μM (100 μM if racemate)
T1 construct: isolated porcine cardiac ventricular myocardium (cardiac); from tissue; host or cells: porcine cardiac ventricle
Excerpt: as §1

[3] = system: isolated rabbit skeletal muscle myosin (skeletal); test: actomyosin steady state ATPase measurement, skeletal muscle myosin; type: biochemical; details: for % inhibition at 5 μM (or 10 μM if racemate) Skeletal: 5 μM (10 μM if racemate); for % inhibition at 5 μM (or 10 μM if racemate) Skeletal / % inhibition at 50 μM (or 100 μM if racemate) Skeletal: ATPase activity; for % inhibition at 50 μM (or 100 μM if racemate) Skeletal: 50 μM (100 μM if racemate); for IC50: concentration required for semi-maximal inhibition of ATPase; for % inhibition. complete Skeletal: maximum value of inhibition of ATPase activity; for Inhibition (%) skeletal: maximum inhibition, compounds in IC50 range 1-2 μM
Excerpt: as §1

[4] = target: isolated smooth muscle myosin (UniProt P10587); type: biochemical, chamois; details: concentration required for semi-maximal inhibition of ATPase
Excerpt: (ii) the concentration required for semi-maximal inhibition.

[5] = target: isolated smooth muscle myosin (UniProt P10587); type: biochemical, chamois; details: for % inhibition at 5 μM (or 10 μM if racemate) Smooth: 5 μM (10 μM if racemate); for % inhibition at 5 μM (or 10 μM if racemate) Smooth / % inhibition at 50 μM (or 100 μM if racemate) Smooth: ATPase activity; for % inhibition at 50 μM (or 100 μM if racemate) Smooth: 50 μM (100 μM if racemate); for Inhibition (%) smooth: maximum inhibition, compounds in IC50 range 1-5 μM; for % inhibition. complete Smooth: maximum value of inhibition of ATPase activity

T1 sequence (P79293 whole entry): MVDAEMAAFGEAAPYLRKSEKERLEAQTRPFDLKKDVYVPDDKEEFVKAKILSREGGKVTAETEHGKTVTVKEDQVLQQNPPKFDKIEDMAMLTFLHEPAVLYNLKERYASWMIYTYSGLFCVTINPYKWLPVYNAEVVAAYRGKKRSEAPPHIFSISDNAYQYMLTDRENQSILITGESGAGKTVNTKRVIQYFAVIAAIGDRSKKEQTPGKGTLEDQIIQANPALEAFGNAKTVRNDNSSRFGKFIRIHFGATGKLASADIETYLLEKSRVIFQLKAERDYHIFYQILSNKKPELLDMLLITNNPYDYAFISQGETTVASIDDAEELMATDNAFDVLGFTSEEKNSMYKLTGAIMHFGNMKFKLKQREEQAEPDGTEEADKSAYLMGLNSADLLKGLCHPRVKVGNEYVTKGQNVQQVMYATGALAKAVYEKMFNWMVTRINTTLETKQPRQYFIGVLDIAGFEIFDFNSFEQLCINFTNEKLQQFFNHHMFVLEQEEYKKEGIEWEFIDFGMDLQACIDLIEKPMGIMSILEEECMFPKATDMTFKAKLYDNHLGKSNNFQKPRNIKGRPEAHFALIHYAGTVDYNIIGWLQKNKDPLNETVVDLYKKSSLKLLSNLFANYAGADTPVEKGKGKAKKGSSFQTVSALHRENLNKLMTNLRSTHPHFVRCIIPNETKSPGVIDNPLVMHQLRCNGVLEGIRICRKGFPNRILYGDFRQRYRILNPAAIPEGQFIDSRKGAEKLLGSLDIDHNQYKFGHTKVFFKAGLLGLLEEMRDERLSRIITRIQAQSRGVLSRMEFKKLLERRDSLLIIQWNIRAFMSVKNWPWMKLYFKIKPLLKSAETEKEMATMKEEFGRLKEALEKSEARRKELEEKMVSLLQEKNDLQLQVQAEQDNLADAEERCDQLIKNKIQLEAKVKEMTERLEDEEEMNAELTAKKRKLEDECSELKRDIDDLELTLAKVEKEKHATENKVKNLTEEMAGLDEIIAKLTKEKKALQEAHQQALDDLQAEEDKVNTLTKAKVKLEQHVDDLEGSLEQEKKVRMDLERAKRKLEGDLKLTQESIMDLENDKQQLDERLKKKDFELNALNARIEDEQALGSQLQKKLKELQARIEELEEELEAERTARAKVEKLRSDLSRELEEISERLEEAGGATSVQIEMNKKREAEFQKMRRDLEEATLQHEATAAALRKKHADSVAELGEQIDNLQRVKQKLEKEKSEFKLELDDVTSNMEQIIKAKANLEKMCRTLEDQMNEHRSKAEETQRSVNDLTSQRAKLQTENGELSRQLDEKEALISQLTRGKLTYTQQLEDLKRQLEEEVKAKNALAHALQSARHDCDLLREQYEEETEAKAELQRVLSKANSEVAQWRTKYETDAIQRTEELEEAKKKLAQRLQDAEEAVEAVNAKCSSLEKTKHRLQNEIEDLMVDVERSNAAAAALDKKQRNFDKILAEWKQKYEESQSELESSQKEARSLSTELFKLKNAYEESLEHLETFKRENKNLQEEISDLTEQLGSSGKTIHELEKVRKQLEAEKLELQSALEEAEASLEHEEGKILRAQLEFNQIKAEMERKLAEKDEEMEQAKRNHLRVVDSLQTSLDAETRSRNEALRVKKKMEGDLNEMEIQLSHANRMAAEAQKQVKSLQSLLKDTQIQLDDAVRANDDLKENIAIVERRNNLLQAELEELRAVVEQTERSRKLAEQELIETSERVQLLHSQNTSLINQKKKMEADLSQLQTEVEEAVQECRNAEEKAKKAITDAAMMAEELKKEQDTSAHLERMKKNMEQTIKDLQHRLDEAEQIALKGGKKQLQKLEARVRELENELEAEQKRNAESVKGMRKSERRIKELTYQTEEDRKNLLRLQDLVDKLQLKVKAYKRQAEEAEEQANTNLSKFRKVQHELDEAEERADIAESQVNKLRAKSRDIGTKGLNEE
Chain of recombinant Dictyostelium miozin (Dictyostelium) (P08799 whole entry): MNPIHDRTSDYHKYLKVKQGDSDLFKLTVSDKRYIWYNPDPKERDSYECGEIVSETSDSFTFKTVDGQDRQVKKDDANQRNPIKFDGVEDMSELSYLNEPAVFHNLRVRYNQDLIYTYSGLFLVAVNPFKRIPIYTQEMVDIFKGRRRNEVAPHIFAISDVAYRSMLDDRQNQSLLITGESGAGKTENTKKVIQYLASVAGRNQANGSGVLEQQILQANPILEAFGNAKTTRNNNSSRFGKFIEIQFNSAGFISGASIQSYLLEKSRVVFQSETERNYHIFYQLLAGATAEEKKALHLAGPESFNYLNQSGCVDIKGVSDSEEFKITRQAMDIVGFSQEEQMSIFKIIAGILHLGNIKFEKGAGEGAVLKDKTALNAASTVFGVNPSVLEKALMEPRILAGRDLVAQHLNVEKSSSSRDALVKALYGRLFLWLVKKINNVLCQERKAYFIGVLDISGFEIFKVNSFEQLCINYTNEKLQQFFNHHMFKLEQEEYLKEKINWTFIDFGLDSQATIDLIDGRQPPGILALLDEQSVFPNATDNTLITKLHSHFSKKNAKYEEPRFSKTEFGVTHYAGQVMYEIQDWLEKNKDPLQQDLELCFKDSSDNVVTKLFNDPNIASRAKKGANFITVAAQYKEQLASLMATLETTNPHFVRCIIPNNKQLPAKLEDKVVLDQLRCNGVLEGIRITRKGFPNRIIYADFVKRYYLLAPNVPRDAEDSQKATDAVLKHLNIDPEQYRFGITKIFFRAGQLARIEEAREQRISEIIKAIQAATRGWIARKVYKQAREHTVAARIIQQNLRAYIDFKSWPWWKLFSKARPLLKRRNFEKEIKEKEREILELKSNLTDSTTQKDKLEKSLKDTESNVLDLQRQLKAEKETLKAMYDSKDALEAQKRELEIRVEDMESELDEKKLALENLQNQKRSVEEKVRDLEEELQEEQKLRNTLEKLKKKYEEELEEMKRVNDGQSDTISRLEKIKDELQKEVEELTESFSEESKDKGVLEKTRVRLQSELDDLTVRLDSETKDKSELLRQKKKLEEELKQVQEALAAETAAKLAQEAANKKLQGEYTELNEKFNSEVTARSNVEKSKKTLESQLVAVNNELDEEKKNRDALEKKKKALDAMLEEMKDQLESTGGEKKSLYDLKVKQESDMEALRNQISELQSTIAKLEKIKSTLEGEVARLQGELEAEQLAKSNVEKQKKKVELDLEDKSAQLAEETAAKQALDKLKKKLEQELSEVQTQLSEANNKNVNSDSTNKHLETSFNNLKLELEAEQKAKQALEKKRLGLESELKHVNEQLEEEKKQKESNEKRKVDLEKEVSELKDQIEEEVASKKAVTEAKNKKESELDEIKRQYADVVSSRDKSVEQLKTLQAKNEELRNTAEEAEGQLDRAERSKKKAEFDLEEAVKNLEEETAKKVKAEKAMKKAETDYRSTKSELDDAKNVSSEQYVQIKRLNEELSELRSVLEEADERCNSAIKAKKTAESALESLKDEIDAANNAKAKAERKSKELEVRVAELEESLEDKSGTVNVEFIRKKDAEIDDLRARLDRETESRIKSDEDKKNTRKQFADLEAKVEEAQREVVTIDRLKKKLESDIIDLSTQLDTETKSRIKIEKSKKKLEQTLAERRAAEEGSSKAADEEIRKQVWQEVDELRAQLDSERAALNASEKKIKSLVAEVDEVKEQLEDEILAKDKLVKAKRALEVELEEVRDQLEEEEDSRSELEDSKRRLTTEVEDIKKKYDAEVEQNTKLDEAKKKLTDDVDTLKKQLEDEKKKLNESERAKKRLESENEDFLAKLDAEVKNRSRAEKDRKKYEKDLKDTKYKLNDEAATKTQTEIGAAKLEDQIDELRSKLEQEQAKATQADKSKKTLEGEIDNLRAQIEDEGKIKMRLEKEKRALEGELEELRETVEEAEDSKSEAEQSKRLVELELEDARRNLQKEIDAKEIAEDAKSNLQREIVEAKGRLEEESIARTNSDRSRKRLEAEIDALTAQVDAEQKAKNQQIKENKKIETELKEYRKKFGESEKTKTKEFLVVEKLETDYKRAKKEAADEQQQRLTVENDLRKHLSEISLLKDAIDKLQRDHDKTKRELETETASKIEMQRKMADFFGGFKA

| Compound | IC50 [1] | inhibition at 5 µM [1] | inhibition at 50 µM [1] | IC50 [2] | % inhibition. complete cardiac [2] | inhibition at 5 µM [2] | inhibition at 50 µM [2] | % inhibition at 5 μM (or 10 μM if racemate) Skeletal [3] | % inhibition at 50 μM (or 100 μM if racemate) Skeletal [3] | IC50 [3] | % inhibition. complete Skeletal [3] | IC50 [4] | % inhibition at 5 μM (or 10 μM if racemate) Smooth [5] | % inhibition at 50 μM (or 100 μM if racemate) Smooth [5] | Inhibition (%) smooth [5] | % inhibition. complete Smooth [5] | Inhibition (%) cardiac ([2]; maximum inhibition, compounds in IC50 range 3-6 μM) | % inhibition. complete Dicty [1] | Inhibition (%) skeletal [3] |
| --- | --- | --- | --- | --- | --- | --- | --- | --- | --- | --- | --- | --- | --- | --- | --- | --- | --- | --- | --- |
| CC(=O)c1ccc(N2CCC3(O)C(=O)c4ccncc4N=C23)cc1 (stereo not drawn) [Compound 240, 1-(4-Acetylphenyl)-3a-hydroxy-1H,2H,3H,3aH,4H-pyrrolo[2,3-b]1,7-naphthyridin-4-one] | 0.39 µM | 24% | 26% | 8.1 µM | 37% | 13% | 31% | 49% | 83% | 4.3 µM | 91% | 1.5 µM | 18% | 23% | 24% | 24% |  |  |  |
| O=C1c2ccsc2N=C2NCC[C@@]12O [Compound 207, (9S)-9-Hydroxy-4-thia-2,12-diazatricyclo[7.3.0.0^3,7]dodeca-1,3(7),5-trien-8-one] | > 100 µM | 0% | 5% | 3.7 µM | 8% | 4% | 7% | 7% | 14% | 5.8 µM | 15% | 1 µM | 7% | 6% |  | 7% | 8% |  |  |
| O=C1c2ccncc2N=C2N(c3ccc(N4CCOCC4)cc3)CCC12O (stereo not drawn) [Compound 248, 3a-Hydroxy-1-[4-(morpholin-4-yl)phenyl]-1H,2H,3H,3aH,4H-pyrrolo[2,3-b]1,7-naphthyridin-4-one] | > 100 µM | 0% | 7% | > 100 µM | 2% | 4% | 1% | 21% | 56% | 12 µM | 70% | > 100 µM | 1% | 0% |  | 0% |  | 100% |  |
| Cc1cc2c(s1)N=C1N(c3ccc(N(C)C)cc3)CCC1(O)C2=O (stereo not drawn) [Compound 250, 12-[4-(Dimethylamino)phenyl]-9-hydroxy-5-methyl-4-thia-2,12-diazatricyclo[7.3.0.0^3,7]dodeca-1,3(7),5-trien-8-one] | 18 µM | 15% | 50% | 9 µM | 76% | 26% | 64% | 93% | 98% | 0.3 µM | 99% |  |  |  |  |  |  | 68% |  |
| Cc1ccc(N2CCC3(O)C(=O)c4ccncc4N=C23)cc1 (stereo not drawn) [Compound 247, 1-[4-(Methyl)phenyl]-3a-hydroxy-1H,2H,3H,3aH,4H-pyrrolo[2,3-b]1,7-naphthyridin-4-one] | 71 µM | 4% | 22% | 31 µM | 70% | 9% | 43% | 74% | 96% | 1.7 µM | 99% | 44 µM | 3% | 15% |  | 29% |  | 54% |  |
| Cc1cc2c(s1)N=C1NCCC1(O)C2=O (stereo not drawn) [Compound 231, 9-Hydroxy-5-methyl-4-thia-2,12-diazatricyclo[7.3.0.0^3,7]dodeca-1,3(7),5-trien-8-one] | > 100 µM | 4% | 0% | 1 µM |  | 6% | 5% | 5% | 7% | 1.4 µM | 7% | 1 µM | 7% | 2% | 5% | 5% |  |  | 7% |
| O=C1c2ccncc2N=C2NCCC12O (stereo not drawn) [Compound 255, 3a-Hydroxy-1H,2H,3H,3aH,4H-pyrrolo[2,3-b]1,7-naphthyridin-4-one] | 42 µM | 4% | 18% | 1 µM |  | 7% | 7% | 6% | 7% | 1.7 µM | 7% | 1 µM | 3% | 3% |  | 3% |  | 33% | 7% |
| CN(C)c1ccc(N2CC[C@@]3(O)C(=O)c4ccsc4N=C23)cc1 [Compound 249, (9S)-12-[4-(dimethylamino)phenyl]-9-hydroxy-4-thia-2,12-diazatricyclo[7.3.0.0^3,7]dodeca-1,3(7),5-trien-8-one] | 10 µM | 15% | 39% | 35 µM | 90% | 11% | 52% | 80% | 97% | 1.2 µM | 100% | 13 µM | 19% | 55% |  | 69% |  | 47% | 100% |
| Cc1ccc(N2CCC3(O)C(=O)c4cc(C)sc4N=C23)cc1 (stereo not drawn) [Compound 235, 12-[4-(Methyl)phenyl]-9-hydroxy-5-methyl-4-thia-2,12-diazatricyclo[7.3.0.0^3,7]dodeca-1,3(7),5-trien-8-one] | 0.17 µM | 44% | 45% | 0.01 µM | 71% | 72% | 70% | 98% | 100% | 0.08 µM | 100% | 0.01 µM | 82% | 79% |  | 81% |  | 46% |  |
